These results are taken from ChEMBL document CHEMBL4390674, “Defining Structure-Functional Selectivity Relationships (SFSR) for a Class of Non-Catechol Dopamine D1 Receptor Agonists” (J Med Chem, 2019).

A value given as a limit tells only on which side of the number the result lay.

Assay [1] concerns the target T1, Alpha-1B adrenergic receptor (Homo sapiens, UniProt P35368).
T1 sequence (P35368 whole entry): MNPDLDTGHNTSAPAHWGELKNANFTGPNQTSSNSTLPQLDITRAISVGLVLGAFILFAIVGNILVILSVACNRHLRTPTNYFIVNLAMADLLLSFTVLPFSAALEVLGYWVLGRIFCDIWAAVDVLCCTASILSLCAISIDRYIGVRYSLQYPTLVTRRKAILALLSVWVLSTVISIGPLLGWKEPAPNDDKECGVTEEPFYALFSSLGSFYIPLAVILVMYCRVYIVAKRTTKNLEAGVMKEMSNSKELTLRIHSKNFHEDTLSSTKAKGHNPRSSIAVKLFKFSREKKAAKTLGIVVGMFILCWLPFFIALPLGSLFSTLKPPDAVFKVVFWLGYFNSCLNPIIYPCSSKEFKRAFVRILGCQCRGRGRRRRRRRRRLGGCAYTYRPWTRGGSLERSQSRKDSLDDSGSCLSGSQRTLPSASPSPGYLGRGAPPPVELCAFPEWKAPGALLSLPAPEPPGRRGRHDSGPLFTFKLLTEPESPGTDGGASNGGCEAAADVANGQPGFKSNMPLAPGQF
Put plainly: Displacement of [3H]-prazosin from recombinant human alpha1B adrenergic receptor transiently expressed in HEKT cells measured after 90 mins by microbeta scintillation counting method. It is filed as cell-based. On the technique in general: In a radioligand displacement assay an active substance lowers the binding of a labelled ligand.

For a further assay, the target named is Histamine H1 receptor (Homo sapiens, UniProt P35367). Put plainly: Displacement of [3H]-pyrilamine from human histamine H1 receptor expressed in stable HEK cells after 90 mins by microbeta scintillation counting method. It is filed as cell-based.
In assay [2] the target is T2, 5-hydroxytryptamine receptor 3A (Homo sapiens, UniProt P46098).
T2 sequence (P46098 whole entry): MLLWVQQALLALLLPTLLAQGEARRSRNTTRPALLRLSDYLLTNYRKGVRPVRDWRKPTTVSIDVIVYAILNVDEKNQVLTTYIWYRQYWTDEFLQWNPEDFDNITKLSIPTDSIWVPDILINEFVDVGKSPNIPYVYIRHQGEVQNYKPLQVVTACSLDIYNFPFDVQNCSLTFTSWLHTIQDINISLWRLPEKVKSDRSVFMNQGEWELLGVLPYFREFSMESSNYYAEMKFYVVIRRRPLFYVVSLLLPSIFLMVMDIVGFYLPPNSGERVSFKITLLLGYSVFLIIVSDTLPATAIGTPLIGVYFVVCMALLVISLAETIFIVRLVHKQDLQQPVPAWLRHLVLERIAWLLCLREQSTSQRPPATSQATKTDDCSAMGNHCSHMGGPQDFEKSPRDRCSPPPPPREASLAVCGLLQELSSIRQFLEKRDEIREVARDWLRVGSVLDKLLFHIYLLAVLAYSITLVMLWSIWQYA
Put plainly: Displacement of [3H]GR65630 from recombinant human 5HT3 receptor transiently expressed in HEKT cells measured after 90 mins by microbeta scintillation counting method. It is filed as cell-based.

The target in assay [3] is T3, Alpha-1A adrenergic receptor (Homo sapiens, UniProt P35348).
T3 sequence (P35348 whole entry): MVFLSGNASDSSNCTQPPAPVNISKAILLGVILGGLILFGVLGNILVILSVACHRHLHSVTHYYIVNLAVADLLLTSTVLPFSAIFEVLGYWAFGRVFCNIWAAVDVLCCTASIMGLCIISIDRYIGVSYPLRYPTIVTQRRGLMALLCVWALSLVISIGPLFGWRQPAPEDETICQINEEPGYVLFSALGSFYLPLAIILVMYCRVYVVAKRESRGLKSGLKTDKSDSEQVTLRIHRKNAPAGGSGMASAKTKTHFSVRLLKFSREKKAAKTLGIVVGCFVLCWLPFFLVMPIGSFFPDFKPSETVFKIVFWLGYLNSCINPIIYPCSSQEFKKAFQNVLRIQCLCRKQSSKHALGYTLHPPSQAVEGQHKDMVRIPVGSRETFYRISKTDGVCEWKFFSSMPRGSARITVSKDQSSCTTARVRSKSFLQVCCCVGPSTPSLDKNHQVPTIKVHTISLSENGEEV
Put plainly: Displacement of [3H]-prazosin from recombinant human alpha1A adrenergic receptor measured after 90 mins by microbeta scintillation counting method.

Chain of Histamine H1 receptor (P35367 whole entry): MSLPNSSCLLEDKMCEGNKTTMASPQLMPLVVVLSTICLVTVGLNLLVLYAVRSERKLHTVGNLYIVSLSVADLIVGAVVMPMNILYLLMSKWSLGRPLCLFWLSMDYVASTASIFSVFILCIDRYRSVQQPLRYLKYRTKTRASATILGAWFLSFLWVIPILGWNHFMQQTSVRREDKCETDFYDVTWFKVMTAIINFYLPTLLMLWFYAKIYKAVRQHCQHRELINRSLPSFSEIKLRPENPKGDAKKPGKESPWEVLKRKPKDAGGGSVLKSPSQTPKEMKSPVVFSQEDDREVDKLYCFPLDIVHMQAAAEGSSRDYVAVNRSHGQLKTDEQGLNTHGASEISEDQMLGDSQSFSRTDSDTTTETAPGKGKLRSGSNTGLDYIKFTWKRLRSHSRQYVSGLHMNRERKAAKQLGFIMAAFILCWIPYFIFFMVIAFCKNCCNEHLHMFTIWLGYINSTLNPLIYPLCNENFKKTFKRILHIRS

Turning to `Cc1cc(Oc2nccc3occc23)ccc1-c1c(C)ncc2nccn12`, the Ki is 9.2 µM in assay [1], above 10 µM on Histamine H1 receptor, 7.9 µM in assay [2] and 3.4 µM in assay [3].
With `Cc1ncc2nccn2c1-c1ccc(Oc2nccc3occc23)cc1C(F)(F)F`, the Ki in assay [1] was 8.8 µM; at Histamine H1 receptor, above 10 µM; in assay [2], 9.1 µM; in assay [3], 8.7 µM.
The matching figures for `FC(F)(F)c1cc(Oc2nccc3ccsc23)ccc1-c1cccc2nccn12`: 4.8 µM, 2.6 µM, 7.6 µM and 2.9 µM.
The matching figures for `FC(F)(F)c1cc(Oc2nccc3occc23)ccc1-c1cccc2nccn12`: 7.4 µM, 9.8 µM, 9.3 µM and 7 µM.

A word on the Ki: it is a measure of affinity in units of concentration, obtained from inhibition or displacement.
